Ki, IC50 and EC50 data for 20 molecules are collected here from US9434725B2, “5-azaindazole compounds and methods of use” (priority 2012, dated 2016).

In test [1] the target is PIM1 (Homo sapiens (Human), UniProt P11309). The test can be described thus: biochemical. In kind it is biochemical. The note with it: 10 μM ATP, 90 min, room temperature; read-out: PIM1 LC3K (KI). The essentials:
(§1)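 Read-out is microfluidic electrophoretic separation of phosphorylated from unphosphorylated fluorescent Pim peptide, with Ki calculated from conversion. Reactions ran 90 min at room temperature in HEPES pH 7.2 containing MgCl2, Tween 20 and DTT, ended by EDTA-containing buffer.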

Test [2] concerns the target PIM2 (Homo sapiens (Human), UniProt Q9P1W9). As to the kind of experiment: Pim kinase binding activity, Caliper LC3000 microfluidic peptide phosphorylation assay, PIM2. It counts as biochemical. To be noted: 10 μM ATP, 90 min, room temperature; read-out: PIM2 LC3K (KI). The essentials:
as §1

Test [3] has as its target PIM3 (Homo sapiens (Human), UniProt Q86V86). As to the kind of experiment: Pim kinase binding activity, Caliper LC3000 microfluidic peptide phosphorylation assay, PIM3. It counts as biochemical. To be noted: 10 μM ATP, 90 min, room temperature; read-out: PIM3 LC3K (KI). The method in brief: as §1
In test [4] the test system is BaF3 PIM1 cells. The test can be described thus: In vitro cell proliferation potency assay (Cell Titer Glo), BaF3 PIM1 cells. It counts as cell-based, murine. The note with it: read-out: Prolif BaF3_PIM 1 (IC50). The protocol: (§2) BaF3 parental line was obtained from the DSMZ repository. BaF3 lines transfected with PIM1 or PIM2 were generated. Mouse IL-3 was purchased from R&D Systems. G418 was purchased from Clontech. Media for BaF3 parental line contained RPMI, 10% FBS, 2 mM L-Glutamine, 2 ng/mL mIL-3. Media for BaF3 PIM1 & 2 lines contained RPMI, 10% FBS, 2 mM L-Glutamine, […]. Media for MM1.S (multiple myeloma cells) line contained RPMI, 10% FBS, 2 mM L-Glutamine.
(§3) BaF3, a murine interleukin-3 dependent pro-B cell line, parental cells, BaF3 PIM1 cells, BaF3 PIM2 cells, and MM1.S (multiple myeloma) cells were seeded at 2 k/well, 5 k/well, 5 k/well, and 10 k/well respectively, in a 384-well plate, at 45 μL/well. Test compound was added at 5 μL/well. BaF3 cells (parental and transfected) were incubated overnight, while MM1.S cells were incubated for 72 hours at 37° C., 5% CO2. CELL TITER GLO® Reagent (Promega) was added at 50 μL/well, the plates were incubated for 30 minutes, and their luminescence read on an HT Analyst. IC50/EC50 values for the test compound were calculated.
In general terms: ATP-based viability assays read luminescence as a measure of living cells.

Test [5] concerns MM1.S (multiple myeloma) cells. As to the kind of experiment: In vitro cell proliferation potency assay (Cell Titer Glo), MM1.S cells. In kind it is cell-based. To be noted: read-out: Prolif MM1S ATP (EC50). The protocol:
as §2, §3

The mark [6] stands for this setting: BaF3 cells transfected with PIM1, incubated overnight.
The mark [7] stands for this setting: Homo sapiens, MM1.S cells, 72 hours.
[8] abbreviates: Mus musculus, BaF3, BaF3 cells transfected with PIM1, incubated overnight.
The mark [9] stands for this setting: Homo sapiens, MM1.S, 72 h, MM1.S cells, 72 hours.

Structures can show the parent of a compound that is named as a salt. Where two headings read alike, the source gives them in different places.

PIM1, sequence (P11309 whole entry): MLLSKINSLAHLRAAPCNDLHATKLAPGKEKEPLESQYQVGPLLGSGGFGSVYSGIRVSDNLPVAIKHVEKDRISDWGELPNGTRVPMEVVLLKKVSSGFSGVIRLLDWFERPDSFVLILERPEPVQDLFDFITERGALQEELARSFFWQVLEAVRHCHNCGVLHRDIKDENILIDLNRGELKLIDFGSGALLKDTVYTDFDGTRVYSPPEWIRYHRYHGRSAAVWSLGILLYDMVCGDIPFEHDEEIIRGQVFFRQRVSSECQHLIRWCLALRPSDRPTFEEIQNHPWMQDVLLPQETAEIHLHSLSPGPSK
PIM2, sequence (Q9P1W9 whole entry): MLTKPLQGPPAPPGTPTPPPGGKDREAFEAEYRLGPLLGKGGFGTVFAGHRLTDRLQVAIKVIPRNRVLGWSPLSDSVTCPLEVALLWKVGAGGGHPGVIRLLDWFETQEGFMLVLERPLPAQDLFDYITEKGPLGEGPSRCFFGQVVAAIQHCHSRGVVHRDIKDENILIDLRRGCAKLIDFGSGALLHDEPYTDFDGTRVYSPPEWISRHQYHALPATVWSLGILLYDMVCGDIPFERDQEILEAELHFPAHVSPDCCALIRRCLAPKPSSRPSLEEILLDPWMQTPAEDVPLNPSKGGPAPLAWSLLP

By Ki is commonly meant the dissociation constant of the complex between target and ligand, obtained from inhibition or displacement. By IC50 is commonly meant the concentration that inhibits the measured activity by half. As a reminder, the EC50 is the concentration giving half of the maximal effect. Consider `Cc1cncc(-c2cc3c(cn2)cnn3-c2cccc(N3CCNC(C)C3)n2)n1` (single isomer, unassigned) [Compound 185, 1-[6-(3-methylpiperazin-1-yl)-2-pyridyl]-6-(6-methylpyrazin-2-yl)pyrazolo[4,3-c]pyridine], for which the results for the Ki in test [1], in test [2] and in test [3] were 0.06 nM, 0.54 nM and 0.022 nM, respectively. In test [4] (setting [6]), the half-inhibitory concentration (IC50) turned out to be 400 nM. Further, the EC50 in test [5] (setting [7]) is 4800 nM.

Take `Cc1ccc(-n2ncc3cnc(-c4cnn(CC(F)(F)F)c4)cc32)nc1N1CCNC[C@@H](O)C1` (single isomer, unassigned) [Compound 260]: the inhibitory constant (Ki) is 0.047 nM in test [1], 1.54 nM in test [2] and 0.127 nM in test [3]. Moreover, the IC50 in test [4] (setting [8]) was 380 nM. Also, the 50% effective concentration (EC50) in test [5] (Homo sapiens, MM1.S, 72 h) came out at 852 nM.

As for `Cc1cncc(-c2cc3c(cn2)cnn3-c2cccc(C3CNCCC3(F)F)n2)n1` (single isomer, unassigned) [Compound 271], the Ki in test [1] was found to be 0.189 nM; in test [2], 2.45 nM. For the same molecule, the 50% inhibitory concentration (IC50) in test [4] (setting [6]) was 1400 nM. Besides, the EC50 in test [5] (MM1.S cells, 72 hours) was found to be 4900 nM.

Consider `Cc1cncc(-c2cc3c(cn2)cnn3-c2cccc(C3CNCCC3(F)F)n2)n1` (single isomer, unassigned) [Compound 272], for which the inhibition constant (Ki) was 0.067 nM in test [1] and 0.234 nM in test [2]. The 50% inhibitory concentration (IC50) in test [4] (setting [6]) turned out to be 194 nM. Further, in test [5] (MM1.S cells, 72 hours), the EC50 stood at 1200 nM.

For the molecule `Cc1cncc(-c2cc3c(cn2)cnn3-c2cccc(N3CCNCC3)n2)n1` [Compound 123, 6-(6-methylpyrazin-2-yl)-1-(6-(piperazin-1-yl)pyridin-2-yl)-1H-pyrazolo[4,3-c]pyridine], the inhibition constant Ki in test [1] was determined as 0.095 nM; in test [2] it was 0.893 nM; in test [3], 0.0498 nM. In addition, in test [4] (setting [8]), the IC50 was found to be 284 nM. In test [5] (setting [9]), the half-maximal effective concentration (EC50) stood at 3900 nM.

Regarding `CC(C)n1cc(-c2cc3c(cn2)cnn3-c2cccc(N3CCCNCC3)n2)cn1` [Compound 146, 1-(6-(1,4-Diazepan-1-yl)pyridin-2-yl)-6-(1-isopropyl-1H-pyrazol-4-yl)-1H-pyrazolo[4,3-c]pyridine], the Ki in test [1] turned out to be 0.532 nM; in test [2] it was 7.81 nM; in test [3], 0.656 nM. The IC50 in test [4] (setting [8]) was 797 nM. For the same molecule, the concentration giving a half-maximal response (EC50) in test [5] (setting [7]) stood at 4300 nM.

Take `c1cc(N2CCCNCC2)nc(-n2ncc3cnc(-c4cnn(C5CCC5)c4)cc32)c1` [Compound 147, 1-(6-(1,4-Diazepan-1-yl)pyridin-2-yl)-6-(1-cyclobutyl-1H-pyrazol-4-yl)-1H-pyrazolo[4,3-c]pyridine]: the inhibition constant Ki in test [1] came to 0.213 nM; in test [2], 3.92 nM; in test [3], 0.259 nM. Besides, the IC50 in test [4] (setting [8]) came out at 869 nM. Moreover, the EC50 in test [5] (setting [7]) worked out at 2700 nM.

Turning to `CCc1cncc(-c2cc3c(cn2)cnn3-c2cccc(N3CCNCC3)n2)n1` [Compound 149, 6-(6-ethylpyrazin-2-yl)-1-(6-piperazin-1-yl-2-pyridyl)pyrazolo[4,3-c]pyridine], the figures for the Ki in test [1], in test [2] and in test [3] were 0.058 nM, 0.678 nM and 0.048 nM, respectively. Besides, in test [4] (setting [8]), the half-maximal inhibitory concentration (IC50) was 240 nM. For the same molecule, in test [5] (setting [9]), the EC50 worked out at 4700 nM.

For `CS(=O)(=O)CCn1cc(-c2cc3c(cn2)cnn3-c2cccc(N3CCCNCC3)n2)cn1` [Compound 157, 1-(6-(1,4-Diazepan-1-yl)pyridin-2-yl)-6-(1-(2-(methylsulfonyl)ethyl)-1H-pyrazol-4-yl)-1H-pyrazolo[4,3-c]pyridine], the Ki in test [1] was 0.087 nM; in test [2] it was 6.2 nM; in test [3], 0.055 nM. The IC50 in test [4] (setting [8]) worked out at 2800 nM. Also, the EC50 in test [5] (setting [9]) is 4000 nM.

With `c1cc(N2CCCNCC2)nc(-n2ncc3cnc(-c4cnn(C5CC5)c4)cc32)c1` [Compound 174, 1-(6-(1,4-Diazepan-1-yl)pyridin-2-yl)-6-(1-cyclopropyl-1H-pyrazol-4-yl)-1H-pyrazolo[4,3-c]pyridine], the Ki turned out to be 0.069 nM in test [1], 0.978 nM in test [2] and 0.079 nM in test [3]. Besides, the half-maximal inhibitory concentration (IC50) in test [4] (setting [8]) was 271 nM. Moreover, the EC50 in test [5] (setting [7]) turned out to be 3100 nM.

Turning to `COc1ccc(-n2ncc3cnc(-c4cncc(C)n4)cc32)nc1N1CCC[C@H](N)C1` [Compound 186, (S)-1-(3-methoxy-6-(6-(6-methylpyrazin-2-yl)-1H-pyrazolo[4,3-c]pyridin-1-yl)pyridin-2-yl)piperidin-3-amine], the inhibition constant (Ki) turned out to be 0.0212 nM in test [1], 0.134 nM in test [2] and 0.013 nM in test [3]. Moreover, the IC50 in test [4] (setting [8]) is 220 nM. In test [5] (setting [7]), the concentration giving a half-maximal response (EC50) was determined as 508 nM.

Turning to `Cc1cncc(-c2cc3c(cn2)cnn3-c2ccc(C#N)c(N3CCC[C@H](N)C3)n2)n1` [Compound 201, (S)-2-(3-aminopiperidin-1-yl)-6-(6-(6-methylpyrazin-2-yl)-1H-pyrazolo[4,3-c]pyridin-1-yl)nicotinonitrile], the inhibitory constant (Ki) in test [1] is 0.068 nM; in test [2] it was 0.286 nM; in test [3] it was 0.02 nM. In test [4] (setting [8]), the IC50 stood at 490 nM. In test [5] (setting [7]), the EC50 was 1100 nM.

For the molecule `Cc1cncc(-c2cc3c(cn2)cnn3-c2ccc(C)c(N3CCC[C@H](N)C3)n2)n1` [Compound 205, (S)-1-(3-methyl-6-(6-(6-methylpyrazin-2-yl)-1H-pyrazolo[4,3-c]pyridin-1-yl)pyridin-2-yl)piperidin-3-amine], the Ki in test [1] amounted to 0.018 nM; in test [2] it was 0.142 nM; in test [3] it was 0.014 nM. Besides, the IC50 in test [4] (setting [8]) was found to be 278 nM. Moreover, the half-maximal effective concentration (EC50) in test [5] (setting [9]) was found to be 1200 nM.

As for `Cc1cncc(-c2cc3c(cn2)cnn3-c2ccc(CO)c(N3CCC[C@H](N)C3)n2)n1` [Compound 218, (S)-(2-(3-aminopiperidin-1-yl)-6-(6-(6-methylpyrazin-2-yl)-1H-pyrazolo[4,3-c]pyridin-1-yl)pyridin-3-yl)methanol], the inhibition constant (Ki) came to 0.06 nM in test [1], 0.394 nM in test [2] and 0.054 nM in test [3]. The concentration for half-maximal inhibition (IC50) in test [4] (setting [8]) is 212 nM. In test [5] (setting [7]), the half-maximal effective concentration (EC50) came to 574 nM.

As to `OCc1cncc(-c2cc3c(cn2)cnn3-c2cccc(N3CCNCC3)n2)n1` [Compound 273, (6-(1-(6-(piperazin-1-yl)pyridin-2-yl)-1H-pyrazolo[4,3-c]pyridin-6-yl)pyrazin-2-yl)methanol dihydrochloride], the inhibition constant Ki in test [1] came out at 0.117 nM; in test [2], 2.63 nM; in test [3], 0.036 nM. Also, in test [4] (setting [8]), the IC50 was 629 nM. In test [5] (Homo sapiens, MM1.S, 72 h), the half-maximal effective concentration (EC50) is 5500 nM.

Turning to `C=Cc1cncc(-c2cc3c(cn2)cnn3-c2cccc(N3CCNCC3)n2)n1` [Compound 274, 1-(6-(piperazin-1-yl)pyridin-2-yl)-6-(6-vinylpyrazin-2-yl)-1H-pyrazolo[4,3-c]pyridine dihydrochloride], the inhibition constant (Ki) in test [1] was 0.133 nM; in test [2], 4.26 nM; in test [3], 0.098 nM. For the same molecule, the IC50 in test [4] (setting [8]) turned out to be 749 nM. Further, the 50% effective concentration (EC50) in test [5] (Homo sapiens, MM1.S, 72 h) was 5100 nM.

For the molecule `CCNc1cncc(-c2cc3c(cn2)cnn3-c2cccc(N3CCNCC3)n2)n1` [Compound 285, N-ethyl-6-(1-(6-(piperazin-1-yl)pyridin-2-yl)-1H-pyrazolo[4,3-c]pyridin-6-yl)pyrazin-2-amine], the figures for the Ki in test [1] and in test [2] were 0.044 nM and 2.28 nM, respectively. Also, the IC50 in test [4] (setting [8]) turned out to be 112 nM. Further, the EC50 in test [5] (setting [9]) was 6400 nM.

For `Cc1cncc(-c2cc3c(cn2)cnn3-c2ccc3c(n2)CC(CN)CO3)n1` (stereo not shown) [Compound 292, (6-(6-(6-methylpyrazin-2-yl)-1H-pyrazolo[4,3-c]pyridin-1-yl)-3,4-dihydro-2H-pyrano[3,2-b]pyridin-3-yl)methanamine], the Ki in test [1] is 1.6 nM; in test [2], 19.4 nM; in test [3] it was 0.796 nM. For the same molecule, the EC50 in test [5] (setting [7]) worked out at 11700 nM.

`Cc1cncc(-c2cc3c(cn2)cnn3-c2cccc(C3(F)CCCNC3)n2)n1` (stereo not shown) [Compound 294, 1-(6-(3-fluoropiperidin-3-yl)pyridin-2-yl)-6-(6-methylpyrazin-2-yl)-1H-pyrazolo[4,3-c]pyridine]: the Ki in test [1] is 0.514 nM; in test [2], 2.37 nM. Also, the 50% inhibitory concentration (IC50) in test [4] (setting [8]) was 772 nM. For the same molecule, in test [5] (setting [9]), the EC50 was 9300 nM.

`Cc1cncc(-c2cc3c(cn2)cnn3-c2cccc(OC3CCCC(N)C3)n2)n1` (stereo not shown) [Compound 311, 3-(6-(6-(6-methylpyrazin-2-yl)-1H-pyrazolo[4,3-c]pyridin-1-yl)pyridin-2-yloxy)cyclohexanamine]: the Ki in test [1] was found to be 0.069 nM; in test [3], 0.036 nM. Moreover, the half-inhibitory concentration (IC50) in test [4] (setting [8]) was 1000 nM. Further, the concentration for a half-maximal effect (EC50) in test [5] (setting [9]) stood at 5500 nM.
